# Patent publication US7351744B2, “Naphthalene derivatives as termite repellents and toxicants” (Board of Supervisors of Louisiana State University and …, priority 2003, dated 2008)
# Tests used:
# [1] = system: C. formosanus workers and soldiers; assay: Topical application toxicity assay; format: in vivo, Coptotermes formosanus
# Method: Dose-mortality data were analyzed using probit analysis as adapted for PC use (POLO-PC), which automatically corrected for control mortality using Abbott's transformation. See, e.g., R. M Russell et al., “POLO: a new computer program for probit analysis,” Bull. Entomol. Soc. Am., vol. 23, pp. 209-213 (1977); and LeOra Software, “POLO-PC, a user's guide to probit analysis or logit analysis” (1987). The LD50s of workers and soldiers from four tested colonies (y) were plotted against the average weight of tested termites (x) to establish a linear regression equation and conduct correlation analyses. Mean survival, food consumption and tunnel areas were compared among treatments using analysis of variance (ANOVA), followed by least significant difference procedures. See, SAS Institute, SAS/STAT User's Guide: version 8, SAS Institute, Inc., Cary, N.C. (1999). In two-choice assays using either treated filter paper or treated sand, the parameters measured in the two lateral sides of each treatment were compared using paired t-tests. All data were judged at α=0.05.
# Acute toxicity of 2′-acetonaphthone was bioassayed using doses that ranged from 1.25 to 20 ug/termite. At stock solution of 2′-acetonaphthone was prepared ([…]). Dilutions were made by taking aliquots from the stock solution (62.5, 125, 250, 375, 500, 750, and 1000 μl), and adjusting each volume to 2 ml with acetone. A group of 20 workers or soldiers (from colonies BS, WB, E and CR) were placed in a Petri dish (6 cm×1.5 cm) and chilled on top of an ice brick (30.32 cm×17.78 cm×3.81 cm; IceBerg, Mid-Lands Chemical Company, Inc., Miami, Fla.) to slow their movement. Each termite was treated with a topical dose in 0.2 μl acetone to the dorsum of the mesothorax using a Hamilton PB 600 Repeating Dispenser equipped with a 10 μl syringe (Hamilton, Reno, Nev.). The experimental termites were treated with doses equivalent to 1.25, 2.50, 5.0, 7.5, 10.0, 15.0, and 20.0 μg/termite. Control termites were dosedwith only 0.2 μl acetone. Five replicates, each with 20 workers or 20 soldiers, were used for each dose and control. For each replicate, termites were maintained in a plastic container (5.5 cm×3.7 cm, Pioneer Pckaging Co., North Dixon, Ky.), each provided with a filter paper (Whatman #2, 55 mm diameter) wetted with 250 μl double distilled water (DDH20). The containers were covered with lids, and kept for 2 days at room temperature (26-28° C.). Daily mortality in each dish was recorded. Termites were considered dead if unable to right themselves when prodded with a fine paint brush.
# C. formosanus workers = assay: Repellency, choice of treated and untreated filter paper in three-chambered containers; format: in vivo, Coptotermes formosanus; settings: preliminary study; 23 μg/cm^2
compound,measurement,setting,value
CC(=O)c1ccc2ccccc2c1 [2′-acetonaphthone],LD50 (95% CL),"[1]; colony BS, 24 hours, Soldier",3.24 (2.27-4.24) μg/termite
same,LD90 (95% CL),"[1]; colony BS, 24 hours, Soldier",13.60 (8.86-15.01) μg/termite
same,LD50 (95% CL),"[1]; colony BS, 24 hours, Worker",2.21 (1.91-2.49) μg/termite
same,LD90 (95% CL),"[1]; colony BS, 24 hours, Worker",7.11 (6.14-8.58) μg/termite
same,LD50 (95% CL),"[1]; colony BS, 48 hours, Soldier",2.02 (1.49-2.46) μg/termite
same,LD90 (95% CL),"[1]; colony BS, 48 hours, Soldier",4.07 (3.37-5.37) μg/termite
same,LD50 (95% CL),"[1]; colony BS, 48 hours, Worker",1.74 (1.49-1.96) μg/termite
same,LD90 (95% CL),"[1]; colony BS, 48 hours, Worker",4.19 (3.73-4.83) μg/termite
same,LD50 (95% CL),"[1]; colony CR, 24 hours, Soldier",3.49 (2.49-4.51) μg/termite
same,LD90 (95% CL),"[1]; colony CR, 24 hours, Soldier",8.09 (5.94-16.01) μg/termite
same,LD50 (95% CL),"[1]; colony CR, 24 hours, Worker",2.93 (2.24-3.59) μg/termite
same,LD90 (95% CL),"[1]; colony CR, 24 hours, Worker",7.23 (5.59-11.34) μg/termite
same,LD50 (95% CL),"[1]; colony CR, 48 hours, Soldier",2.02 (1.48-2.48) μg/termite
same,LD90 (95% CL),"[1]; colony CR, 48 hours, Soldier",4.26 (3.45-5.92) μg/termite
same,LD50 (95% CL),"[1]; colony CR, 48 hours, Worker",2.67 (1.87-3.35) μg/termite
same,LD90 (95% CL),"[1]; colony CR, 48 hours, Worker",6.09 (4.85-8.82) μg/termite
same,LD50 (95% CL),"[1]; colony E, 24 hours, Soldier",5.12 (3.99-7.24) μg/termite
same,LD90 (95% CL),"[1]; colony E, 24 hours, Soldier",14.06 (9.51-19.26) μg/termite
same,LD50 (95% CL),"[1]; colony E, 24 hours, Worker",7.24 (5.22-9.36) μg/termite
same,LD90 (95% CL),"[1]; colony E, 24 hours, Worker",19.69 (14.02-25.58) μg/termite
same,LD50 (95% CL),"[1]; colony E, 48 hours, Soldier",4.19 (3.14-6.20) μg/termite
same,LD90 (95% CL),"[1]; colony E, 48 hours, Soldier",12.32 (8.23-15.32) μg/termite
same,LD50 (95% CL),"[1]; colony E, 48 hours, Worker",3.82 (2.68-5.83) μg/termite
same,LD90 (95% CL),"[1]; colony E, 48 hours, Worker",11.77 (7.66-17.79) μg/termite
same,LD50 (95% CL),"[1]; colony WB, 24 hours, Soldier",2.16 (0.56-6.23) μg/termite
same,LD90 (95% CL),"[1]; colony WB, 24 hours, Soldier",5.48 (1.42-15.81) μg/termite
same,LD50 (95% CL),"[1]; colony WB, 24 hours, Worker",1.75 (0.76-2.76) μg/termite
same,LD90 (95% CL),"[1]; colony WB, 24 hours, Worker",6.33 (3.71-12.46) μg/termite
same,LD50 (95% CL),"[1]; colony WB, 48 hours, Soldier",2.17 (0.49-5.76) μg/termite
same,LD90 (95% CL),"[1]; colony WB, 48 hours, Soldier",5.59 (1.23-14.49) μg/termite
same,LD50 (95% CL),"[1]; colony WB, 48 hours, Worker",1.71 (0.42-1.95) μg/termite
same,LD90 (95% CL),"[1]; colony WB, 48 hours, Worker",3.09 (2.70-3.72) μg/termite
same,48 h-LD90,"[1]; soldiers, range over the four colonies",4.07-12.32 μg/soldier
same,feeding activity after 8 days exposure,C. formosanus workers,negligible
same,worker distribution,C. formosanus workers,workers avoided the treated side
